From patent US7402597B2, “Activator of peroxisome proliferator-activated receptor δ” (Nippon Chemiphar Co., Ltd, priority 2001, dated 2008)
Read-outs that look alike come from different tables or passages of the source.

Assays:
PPARα = biological target: T1, PPARα (Homo sapiens, UniProt Q07869); test: PPARα transactivation activity (GAL4-hPPARα LBD luciferase reporter in CV-1 cells); format: cell-based; details: for Relative activity for PPAR transactivation, α: compounds at 10^-7 M; for Relative PPARα transactivation activity (α): test compound 10^-6 M, 40 hours, CV-1 cells, 100% = 10^-4 M, 0% = DMSO (0.1%)
T1 construct: Receptor expression plasmid (GAL4-hPPARα, LBD GAL4-hPPARγ LBD, GAL4-hPPARδ LBD); expressed in transfected cells; host or cells: CV-1 cells
T1 sequence (Q07869 239-466 limits assumed): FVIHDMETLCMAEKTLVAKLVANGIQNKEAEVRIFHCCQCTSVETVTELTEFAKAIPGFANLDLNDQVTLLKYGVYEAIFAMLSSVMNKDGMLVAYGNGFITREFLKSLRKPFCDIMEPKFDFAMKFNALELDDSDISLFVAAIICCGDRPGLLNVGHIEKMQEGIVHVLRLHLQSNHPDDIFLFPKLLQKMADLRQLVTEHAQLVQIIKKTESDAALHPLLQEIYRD
Procedure: (§1) (1) Measurement of PPARα, γ, δ transactivation activity
PPARα, γ, δ transactivation activity of each compound [Examples 1-4] was measured in the manner described below.
(§2) CV-1 cells were obtained from Tohoku University Aging Medical Laboratory, Medical Cell Collection Center. All test compounds were dissolved in dimethylsulfoxide (DMSO). Final concentration of DMSO was 0.1%.
Receptor expression plasmid (GAL4-hPPARα, LBD GAL4-hPPARγ LBD, GAL4-hPPARδ LBD), Reporter plasmid (UASx4-TK-LUC), and β-galactosidase expression plasmid (βGAL) similar to Kliewer, S. A., et al., ((1992) Nature, 358:771-774) were used.
(§3) CV-1 cells were seeded in 24 well culture plates at 2×10^5 cells per well, and cultured for 24 hours OPTI-MEM I Reduced Serum Medium (Life Technologies, 500 μL/well) containing 4%-fetal bovine serum (FBS). After washing with OPTI-MEM, transfection mixture (250 μL/well) containing 0.03 μg of GAL4-hPPARδ LBD, 0.25 μg of UASx4-TK-LUC, 0.35 μg of βGAL, and 2 μL of lipofection reagent, DMRIE-C (Life Technologies) were added. The cells were incubated for 5 hours at 37° C.
The cells were washed and incubated for 40 hours in the presence of the test compound (final concentration was 10^−6M).
(§4) The culture medium was removed and the cells were washed with PBS twice. A solubilizing buffer (100 μL/well) containing 25 mM Tris-PO4 (pH 7.8), 15%v/v glycerol, 2% CHAPS, 1% Lecithin, 1% BSA, 4 mM EGTA (pH 8.0), 8 mM MgCl2, 1 mM DTT was added. After the incubation for 10 minutes at room temperature, a portion (20 μL) of the solution was transferred into a 96-well plate. Subsequently, 100 μL of luciferase substrate solution (Piccagene: available from Nippon Gene Co., Ltd.) was added, and a luminous intensity per one second (luciferase activity) was measured using a microluminoreader (Type MLR-100, Corona Electrics Co., Ltd.). Each luciferase activity was corrected by the transfection efficiency which was calculated from β-galactosidase activity. The assay method of β-galactosidase activity was as follows: A portion (50 μL) of the solubilized sample was transferred into another 96-well plate; 100 μL of ONPG (2-nitrophenyl-β-galactopyranoside) solution was added and incubated for 5 minutes at room temperature. 50 μL of a reaction stopping solution (1M sodium carbonate solution) was added. Then the absorbance at 414 nm was measured.
A relative PPAR activity was calculated as follows: 0% (luciferase activity of cells treated with DMSO (0.1%) alone), 100% (luciferase activity of cells treated with a control (PPARα: 10^−4 M […], PPARγ: 10^−5 M Rosiglitazone, PPARδ: 10^−4 M L-165041)).
PPAR transactivation activities of the compounds of Examples 5-10 were assayed in the same manner as described in Example 11.
Relative activities for PPAR transactivation were shown.
Each value represents as % of control. Cells were cultured in the presence of compounds at 10^−7 M except that PPARδ of Examples 5, 6 and 7 were assayed at 10^−8 M.

PPARγ = biological target: T2, PPARγ (Homo sapiens, UniProt P37231); test: PPARγ transactivation activity (GAL4-hPPARγ LBD luciferase reporter in CV-1 cells); format: cell-based; details: for Relative PPARγ transactivation activity (γ): test compound 10^-6 M, 40 hours, CV-1 cells, 100% = 10^-5 M Rosiglitazone, 0% = DMSO (0.1%)
T2 construct: Receptor expression plasmid (GAL4-hPPARα, LBD GAL4-hPPARγ LBD, GAL4-hPPARδ LBD); expressed in transfected cells; host or cells: CV-1 cells
T2 sequence (P37231 238-503 limits assumed): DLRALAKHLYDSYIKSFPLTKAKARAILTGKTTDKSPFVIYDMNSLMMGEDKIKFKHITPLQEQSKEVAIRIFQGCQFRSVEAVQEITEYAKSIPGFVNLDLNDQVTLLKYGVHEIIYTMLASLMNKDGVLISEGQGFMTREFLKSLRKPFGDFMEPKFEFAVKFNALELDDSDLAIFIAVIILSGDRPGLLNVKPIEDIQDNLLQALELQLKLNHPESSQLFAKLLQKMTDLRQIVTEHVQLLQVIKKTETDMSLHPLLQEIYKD
Procedure: as §1, §2
as §3, with “C. […]” for “C.”
as §4

PPARδ = biological target: T3, PPARδ (Homo sapiens, UniProt Q03181); test: PPARδ transactivation activity (GAL4-hPPARδ LBD luciferase reporter in CV-1 cells); format: cell-based; details: for PPARδ transactivation activity (statement in words on Table 25) / Relative PPARδ transactivation activity (δ): CV-1 cells, test compound 10^-6 M; for PPARδ transactivation activity (statement in words on Table 25): control 10^-4 M L-165041 = 100%; for Relative PPARδ transactivation activity (δ): 40 hours, 100% = 10^-4 M L-165041, 0% = DMSO (0.1%)
T3 construct: transfection mixture (250 μL/well) containing 0.03 μg of GAL4-hPPARδ LBD; expressed in transfected cells; host or cells: CV-1 cells
T3 sequence (Q03181 211-439 limits assumed): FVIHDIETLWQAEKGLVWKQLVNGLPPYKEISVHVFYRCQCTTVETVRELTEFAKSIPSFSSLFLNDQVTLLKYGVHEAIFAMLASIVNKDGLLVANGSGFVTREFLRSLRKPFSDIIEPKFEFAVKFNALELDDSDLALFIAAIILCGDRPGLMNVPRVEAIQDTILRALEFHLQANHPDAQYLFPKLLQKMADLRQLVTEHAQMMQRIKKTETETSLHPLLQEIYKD
Procedure: PPARδ transactivation activity of the compound of the invention was measured in the manner described below.
A receptor expression plasmid (GAL4-hPPARδ LBD), a reporter plasmid (UASx4-TK-LUC) and a β-galactosidase (β-GAL) expression plasmid were transfected into CV-1 cells by using DMRIE-C reagent. Subsequently, the cells were incubated for 40 hours in the presence of a compound of the invention, and then the luciferase and β-GAL activities of the cell lysate were assayed.
as §1, §2
as §3, with “C. […]” for “C.”
as §4

db/db mice = test system: db/db mice
Procedure: HDL cholesterol elevating effect was measured by using db/db mice, which are hereditary obesity mice. The db/db mice (10 weeks old) were divided into groups based on serum HDL cholesterol levels. […] Mice of the control group (to which no agent was administered) were orally given 1% methyl cellulose solution. After 16 hours from the final administration, blood sample was collected, and serum HDL cholesterol level was measured. HDL cholesterol was separated by electrophoresis on agarose gels (Chol/Trig Combo, Helena Laboratories). Serum total cholesterol levels were measured enzymaticallly using a kit (Pure Auto, Daiichi Chemicals) by an automatic analyzer (7060E type, Hitachi Ltd.). HDL cholesterol levels were calculated from total cholesterol levels and HDL cholesterol/total cholesterol ratios.
Each value represents as % of the control group.

[1] = compounds at 10^-8 M (Examples 5, 6 and 7)

Relative activity for PPAR transactivation, α (PPARα)	Relative activity for PPAR transactivation, δ (PPARδ; [1])	Relative PPARα transactivation activity (α) (PPARα) [%]	Relative PPARγ transactivation activity (γ) (PPARγ) [%]	Relative PPARδ transactivation activity (δ) (PPARδ) [%]	Relative activity for PPAR transactivation, γ (PPARγ; compounds at 10^-7 M)	Relative activity for PPAR transactivation, δ (PPARδ; compounds at 10^-7 M)	Structure (SMILES)	also measured
0 % of control	63 % of control				0 % of control		Cc1cc2c(CCc3sc(-c4ccc(C(F)(F)F)cc4)nc3C(C)C)noc2cc1SCC(=O)O [Example 7, [3-[2-[4-Isopropyl-2-(4-trifluoromethyl)phenyl-5-thiazolyl]ethyl]-5-methyl-1,2-benzisoxazol-6-yl]thioacetic acid]	
0 % of control	75 % of control				0 % of control		Cc1cc2c(CCc3sc(-c4ccc(C(F)(F)F)cc4)nc3C(C)C)noc2cc1OCC(=O)O [Example 5, [3-[2-[4-Isopropyl-2-(4-trifluoromethyl)phenyl-5-thiazolyl]-ethyl]-5-methyl-1,2-benzisoxazol-6-yl]oxyacetic acid]	
3 % of control					0 % of control	75 % of control	Cc1cc2c(CCc3sc(-c4ccc(C(F)(F)F)cc4)nc3C(C)C)noc2cc1OC(C)(C)C(=O)OCCN1CCCCC1.Cl [Example 10, 2-[[3-[2-[4-Isopropyl-2-(4-trifluoromethyl)phenyl-5-thiazolyl]ethyl]-5-methyl-1,2-benzisoxazol-6-yl]oxy]-2-methylpropionic acid 2-piperidin-1-yl ethyl ester hydrochloride]	
0 % of control					0 % of control	61 % of control	Cc1cc2c(CCc3sc(-c4ccc(C(F)(F)F)cc4)nc3C(C)C)noc2cc1NCC(=O)O [Example 8, [3-[2-[4-Isopropyl-2-(4-trifluoromethyl)phenyl-5-thiazolyl]ethyl]-5-methyl-1,2-benzisoxazol-6-yl]aminoacetic acid]	
		85.0	9.5	59.9			C=CCc1c(OC(C)(C)C(=O)O)ccc2c(CCc3sc(-c4ccc(C(F)(F)F)cc4)nc3C(C)C)noc12 [Example 4, 2-[[7-Allyl-3-[2-[2-[(4-trifluoromethyl)phenyl]-4-isopropyl-5-thiazolyl]ethyl]-1,2-benzisoxazol-6-yl]oxy]-2-methylpropionic acid]	

Further lines, the molecule ahead of its results:

Structure (SMILES)	Relative activity for PPAR transactivation, α (PPARα)	Relative activity for PPAR transactivation, δ (PPARδ; [1])	Relative PPARα transactivation activity (α) (PPARα) [%]	Relative PPARγ transactivation activity (γ) (PPARγ) [%]	Relative PPARδ transactivation activity (δ) (PPARδ) [%]	Relative activity for PPAR transactivation, γ (PPARγ; compounds at 10^-7 M)	Relative activity for PPAR transactivation, δ (PPARδ; compounds at 10^-7 M)	also measured
Cc1cc2c(CCc3sc(-c4ccc(C(F)(F)F)cc4)nc3C(C)C)noc2cc1OC(C)(C)C(=O)O [Example 6, 2-[[3-[2-[4-Isopropyl-2-(4-trifluoromethyl)phenyl-5-thiazolyl]ethyl]-5-methyl-1,2-benzisoxazol-6-yl]oxy]-2-methylpropionic acid]	0 % of control	54 % of control						Relative activity for PPAR transactivation, γ (PPARγ): 0 % of control; Ratio of increasing HDL cholesterol (db/db mice; 10 mg/kg b.i.d. orally for one week, serum 16 hours after final administration): 164 % to control; HDL cholesterol elevating effect (statement in words on Table 27) (db/db mice; oral, twice daily for one week, serum HDL cholesterol 16 hours after final administration): potent HDL cholesterol elevating effect
C=CCc1c(OCC(=O)O)ccc2c(CCc3nc(-c4ccc(Cl)cc4Cl)oc3C(C)C)noc12 [Example 1, [[7-Allyl-3-[2-[2-(2,4-dichlorophenyl)-5-isopropyl-4-oxazolyl]ethyl]-1,2-benzisoxazol-6-yl]oxy]acetic acid]			0.1	9.4	76.9			PPARδ transactivation activity (statement in words on Table 25) (PPARδ): selective PPARδ transactivation activity
C=CCc1c(OC(C)(C)C(=O)O)ccc2c(CCc3nc(-c4ccc(Cl)cc4Cl)oc3C(C)C)noc12 [Example 2, 2-[[7-Allyl-3-[2-[2-(2,4-dichlorophenyl)-5-isopropyl-4-oxazolyl]ethyl]-1,2-benzisoxazol-6-yl]oxy]-2-methylpropionic acid]			8.0	3.2	67.8			PPARδ transactivation activity (statement in words on Table 25) (PPARδ): selective PPARδ transactivation activity
Cc1cc2c(CCc3nc(-c4ccc(Cl)cc4Cl)oc3C(C)C)noc2cc1OCC(=O)O [Example 9, (3-[2-[2-(2,4-Dichlorophenyl)-5-isopropyl-4-oxazolyl]ethyl]-5-methyl-1,2-benzisoxazol-6-yl]oxyacetic acid]	0 % of control					2 % of control	86 % of control	
